± gives the expanded uncertainty stated by the source.
Assay: mn = molality of the nth substance listed, in mol/kg
Conditions: 100 kPa, Liquid, Alternating current cell with electrodes

CCCCn1cc[n+](C)c1.F[B-](F)(F)F [1-butyl-3-methylimidazolium tetrafluoroborate] + CN(C)C=O
Conditions | molar conductivity [S·m2/mol]
283.15 K, m1 = 5.542e-05 | 0.007204 ± 2e-05
283.15 K, m1 = 0.0002915 | 0.00709 ± 2e-05
283.15 K, m1 = 0.0004895 | 0.007031 ± 2e-05
283.15 K, m1 = 0.0006942 | 0.006981 ± 2e-05
283.15 K, m1 = 0.001153 | 0.006893 ± 2e-05
283.15 K, m1 = 0.001938 | 0.006777 ± 2e-05
283.15 K, m1 = 0.002927 | 0.006662 ± 2e-05
283.15 K, m1 = 0.003888 | 0.00657 ± 2e-05
283.15 K, m1 = 0.005903 | 0.006415 ± 2e-05
283.15 K, m1 = 0.008004 | 0.006288 ± 2e-05
283.15 K, m1 = 0.009964 | 0.006189 ± 2e-05
283.15 K, m1 = 0.012 | 0.0061 ± 2e-05
283.15 K, m1 = 0.01485 | 0.00599 ± 2e-05
288.15 K, m1 = 0.0001289 | 0.007713 ± 2e-05
288.15 K, m1 = 0.0002628 | 0.007644 ± 2e-05
288.15 K, m1 = 0.000427 | 0.007581 ± 2e-05
288.15 K, m1 = 0.0006069 | 0.007526 ± 2e-05
288.15 K, m1 = 0.001022 | 0.007427 ± 2e-05
288.15 K, m1 = 0.001697 | 0.007306 ± 2e-05
288.15 K, m1 = 0.002546 | 0.007188 ± 2e-05
288.15 K, m1 = 0.003454 | 0.007086 ± 2e-05
288.15 K, m1 = 0.005179 | 0.006929 ± 2e-05
288.15 K, m1 = 0.007043 | 0.006794 ± 2e-05
288.15 K, m1 = 0.008772 | 0.006689 ± 2e-05
288.15 K, m1 = 0.01186 | 0.006533 ± 2e-05
288.15 K, m1 = 0.01492 | 0.006408 ± 2e-05
293.15 K, m1 = 0.000111 | 0.00828 ± 2e-05
293.15 K, m1 = 0.0002943 | 0.008172 ± 2e-05
293.15 K, m1 = 0.0004483 | 0.008108 ± 2e-05
293.15 K, m1 = 0.000694 | 0.008027 ± 2e-05
293.15 K, m1 = 0.001218 | 0.007899 ± 2e-05
293.15 K, m1 = 0.001996 | 0.007759 ± 2e-05
293.15 K, m1 = 0.002935 | 0.007628 ± 2e-05
293.15 K, m1 = 0.003937 | 0.007515 ± 2e-05
293.15 K, m1 = 0.005916 | 0.007336 ± 2e-05
293.15 K, m1 = 0.007933 | 0.00719 ± 2e-05
293.15 K, m1 = 0.01009 | 0.007059 ± 2e-05
293.15 K, m1 = 0.01201 | 0.00696 ± 2e-05
293.15 K, m1 = 0.01495 | 0.006833 ± 2e-05
298.15 K, m1 = 0.0001246 | 0.008822 ± 2e-05
298.15 K, m1 = 0.0003199 | 0.0087 ± 2e-05
298.15 K, m1 = 0.000527 | 0.008612 ± 2e-05
298.15 K, m1 = 0.000691 | 0.008555 ± 2e-05
298.15 K, m1 = 0.001175 | 0.008424 ± 2e-05
298.15 K, m1 = 0.001926 | 0.008273 ± 2e-05
298.15 K, m1 = 0.002929 | 0.008121 ± 2e-05
298.15 K, m1 = 0.003956 | 0.007996 ± 2e-05
298.15 K, m1 = 0.005953 | 0.007802 ± 2e-05
298.15 K, m1 = 0.008044 | 0.00764 ± 2e-05
298.15 K, m1 = 0.009999 | 0.007512 ± 2e-05
298.15 K, m1 = 0.01205 | 0.007397 ± 2e-05
298.15 K, m1 = 0.0149 | 0.007265 ± 2e-05
303.15 K, m1 = 0.0001037 | 0.00939 ± 2e-05
303.15 K, m1 = 0.0002814 | 0.009262 ± 2e-05
303.15 K, m1 = 0.000494 | 0.00916 ± 2e-05
303.15 K, m1 = 0.0007407 | 0.009069 ± 2e-05
303.15 K, m1 = 0.001192 | 0.00894 ± 2e-05
303.15 K, m1 = 0.001886 | 0.00879 ± 2e-05
303.15 K, m1 = 0.002913 | 0.008621 ± 2e-05
303.15 K, m1 = 0.003912 | 0.008489 ± 2e-05
303.15 K, m1 = 0.006107 | 0.008261 ± 2e-05
303.15 K, m1 = 0.007974 | 0.008107 ± 2e-05
303.15 K, m1 = 0.009993 | 0.007966 ± 2e-05
303.15 K, m1 = 0.01195 | 0.007849 ± 2e-05
303.15 K, m1 = 0.01492 | 0.007699 ± 2e-05
308.15 K, m1 = 5.763e-05 | 0.009991 ± 2e-05
308.15 K, m1 = 0.0002447 | 0.009826 ± 2e-05
308.15 K, m1 = 0.0004495 | 0.009716 ± 2e-05
308.15 K, m1 = 0.0006821 | 0.009621 ± 2e-05
308.15 K, m1 = 0.001183 | 0.009467 ± 2e-05
308.15 K, m1 = 0.001933 | 0.009295 ± 2e-05
308.15 K, m1 = 0.002911 | 0.009124 ± 2e-05
308.15 K, m1 = 0.003919 | 0.008981 ± 2e-05
308.15 K, m1 = 0.005927 | 0.008756 ± 2e-05
308.15 K, m1 = 0.008008 | 0.008573 ± 2e-05
308.15 K, m1 = 0.009997 | 0.008426 ± 2e-05
308.15 K, m1 = 0.01201 | 0.008298 ± 2e-05
308.15 K, m1 = 0.0149 | 0.00814 ± 2e-05
313.15 K, m1 = 9.063e-05 | 0.0105 ± 2e-05
313.15 K, m1 = 0.0002952 | 0.01034 ± 2e-05
313.15 K, m1 = 0.0004868 | 0.01024 ± 2e-05
313.15 K, m1 = 0.0007015 | 0.01015 ± 2e-05
313.15 K, m1 = 0.001177 | 0.009997 ± 2e-05
313.15 K, m1 = 0.001951 | 0.009811 ± 2e-05
313.15 K, m1 = 0.002946 | 0.009626 ± 2e-05
313.15 K, m1 = 0.003906 | 0.009482 ± 2e-05
313.15 K, m1 = 0.005912 | 0.009242 ± 2e-05
313.15 K, m1 = 0.007925 | 0.009053 ± 2e-05
313.15 K, m1 = 0.00996 | 0.008895 ± 2e-05
313.15 K, m1 = 0.01199 | 0.008759 ± 2e-05
313.15 K, m1 = 0.01511 | 0.008574 ± 2e-05
318.15 K, m1 = 9.401e-05 | 0.01103 ± 2e-05
318.15 K, m1 = 0.0002791 | 0.01089 ± 2e-05
318.15 K, m1 = 0.0004526 | 0.01079 ± 2e-05
318.15 K, m1 = 0.0006468 | 0.01071 ± 2e-05
318.15 K, m1 = 0.001144 | 0.01054 ± 2e-05
318.15 K, m1 = 0.001896 | 0.01035 ± 2e-05
318.15 K, m1 = 0.0029 | 0.01015 ± 2e-05
318.15 K, m1 = 0.003892 | 0.009988 ± 2e-05
318.15 K, m1 = 0.005917 | 0.00973 ± 2e-05
318.15 K, m1 = 0.00798 | 0.009527 ± 2e-05
318.15 K, m1 = 0.009945 | 0.009368 ± 2e-05
318.15 K, m1 = 0.01195 | 0.009227 ± 2e-05
318.15 K, m1 = 0.01488 | 0.009038 ± 2e-05

Source: the NIST ThermoML archive (doi:10.1021/je201014c)
